The record followed here is patent US6521595B1, “Nonimmunosuppressive [γ-hydroxy-methylleucine4] cyclosporin A, hair growth stimulator and external composition for skin using the same” (LG Chemical, Ltd., priority 1999, dated 2003).

This assay concerns C57BL/6 mice. Put plainly: In vivo hair growth promoting effects on shaved back of C57BL/6 mice. Set-up: species or system mouse. The following applies: seven week-old female C57BL/6 mice in telogen, 100 ul applied once a day for 30 days, compared to vehicle control. As to the method:
Seven week-old, female C57BL/6 mice were housed in groups of 7 to 11 animals. Mice were in the telogen stage of the hair cycle when used, as indicated by the pinkish color of the skin.
The mice's hair of the region of back was shaved by a clipper. After a one day for adaptation 100 ul of [γ-hydroxy-methylleucine^4] cyclosporin A was applied on the shaved portion once a day for a period of 30 days. After determining the degree of hair growth by the naked eye, the results were photographed. […] In contrast, animals treated with the derivatives (the 11 derivatives mentioned in REFERENCE EXAMPLES 6 to 11) were almost at the level of the control group, having virtually no effects (data not shown).
The test expanded to the derivatives modified on No. 4 amino acid, methylleucine. The results of the hair growth-stimulating effects on the derivatives in which the original No. 4 amino acid, methylleucine, is substituted with the similarly structured methylisoleucine, methylvaline, leucine, isoleucine, methylalanine (REFERENCE EXAMPLES 1 to 5) are represented in FIG. 17 to FIG. 23, wherein the hair growth-stimulating effects of […], [methylvaline^4] (FIG. 20), [leucine^4] (FIG. 21), [isoleucine^4] (FIG. 22), [methylalanine^4]

As to [Ile^4] cyclosporin A [[isoleucine^4]], the “degree of hair growth (hair growth promoting effect) by the naked eye, photographed” value (shortened to “degree of hair growth”) was “much lesser than cyclosporin A”. As for [Leu^4] cyclosporin A [[leucine^4]], the entry is “much lesser than cyclosporin A”.

Consider “[MeAla^4] cyclosporin A [[methylalanine^4]]”, for which the “degree of hair growth” value was “much lesser than cyclosporin A”. For “[MeVal^4] cyclosporin A [[methylvaline^4]]”, the “degree of hair growth” value is recorded as “much lesser than cyclosporin A”. “[methylisoleucine^4] cyclosporin A [[methylleucine^4]]”: the “degree of hair growth” value is recorded as “much lesser than cyclosporin A”.
